Data set [1] can be described thus: Rat pharmacokinetics: FLG in serum after oral prodrug, absolute oral bioavailability. As to conditions: in vivo. From the text:
(§1) Biomed. Anal. 13, 369–376.

The nature of data set [2]: Rat bioavailability of the indanolic ring hydroxy prodrug, mother compound in plasma by LC-MS. The data set is classed as in vivo, rats. On the procedure:
Bioavailability of the ring indanolic ring hydroxy compound of Example B-1 was assessed in rats by the procedure of Biological Example 5 also using a propylene glycol vehicle, 58 mg/kg (0.047 mmol/kg), but wherein the mother compound N1, N6-di [(1S,2R)-2-hydroxy-2,3-dihydro-1-H-1-indenyl]-(2R, 3R, 5R)-2,5-di(benzyloxy)-3,4-dihydroxyhexanediamide was assayed by LC-MS using SiM (single ion monitoring) with M/Z ion detector 653. Plasma results are presented as μM in the table below: […]

Data set [3] in a line: Protein binding in serum samples. In kind it is in vitro ADME.
From the text: as §1

For data set [4], the system named is duck hepatitis B virus (DHBV). Put plainly: DHBV model in ducks, serum DHBV DNA by dot blot-hybridisation. The data set is classed as in vivo. The text has this:
The activity of antivirals on duck hepatitis B virus (DHBV) in ducks is an acknowledged animal model for the validation of in vivo hepatitis B activity in humans. […] The results are depicted in FIGS. […] The ducks were two days old when inoculated with DHBV and 18 days old when treatment was commenced. The metabolite and PBS (controls) were given intraperitoneally for 10 days as twice daily injections, at 8 am and 4 pm. Treatment lasted 33 days and the animals were followed 5 weeks after the end of treatment.
The efficacy of treatment was followed by dot blot-hybridisation of DHBV DNA in serum using a radioactive probe and the amount of DHBV measured as the amount of radioactivity hybridised. FIG. 1 plots the amount of DHBV DNA in serum at different timepoints before, during and after treatment.

Data set [5] is described as follows: Bioavailability of FLG as detected by the present inventors. The note with it: in vivo; FLG itself. From the text: International patent application no. […] The former compound FLG is very active in vitro however the present inventors have detected that its bioavailability is so poor-around 4%-that the in vivo utility of the compound has thus far been limited to intraperitoneally or subcutaneously administered animal models.

The subject of another data set is SIVSM. In words: XTT dye uptake assay utilising MT4 cells. The note with it: Simian immunodeficiency virus, read-out: IC50, concentration of metabolite inducing 50% inhibition of viral replication. In kind it is cell-based, SIV. The text has this: (§2) In the XTT dye uptake assay of Koshida et al Antimicrob Agents Chemother.
Data set [6] in a line: Weight gain of treated DHBV-infected ducks (toxicity). The data set is classed as in vivo. The text has this: The activity of antivirals on duck hepatitis B virus (DHBV) in ducks is an acknowledged animal model for the validation of in vivo hepatitis B activity in humans. […] The ducks were two days old when inoculated with DHBV and 18 days old when treatment was commenced. […] Treatment lasted 33 days and the animals were followed 5 weeks after the end of treatment.

The subject of a further data set is HIV-1^2441 AZT^r. Put plainly: XTT dye uptake assay utilising MT4 cells. In kind it is cell-based. The note with it: Human immunodeficiency virus 1, MT4, read-out: IC50, concentration of metabolite inducing 50% inhibition of viral replication.
From the text: as §2
On the technique in general: Tetrazolium assays rely on reduction of a dye to a coloured formazan, in cell work by metabolically active cells.

For a further data set, the system named is HIV-2SBL6669. Put plainly: XTT dye uptake assay utilising MT4 cells. As to conditions: Human immunodeficiency virus 2, read-out: IC50, concentration of metabolite inducing 50% inhibition of viral replication. In kind it is cell-based.
From the text: as §2

The subject of the next data set is HIV-1^29/9. In words: XTT dye uptake assay utilising MT4 cells. The data set is classed as cell-based. As to conditions: Human immunodeficiency virus 1, read-out: IC50, concentration of metabolite inducing 50% inhibition of viral replication.
From the text: as §2

For data set [7] the following is noted: FLG itself; **literature value; cited from earlier work.
The next data set deals with HIV-1111B. Put plainly: XTT dye uptake assay utilising MT4 cells. The data set is classed as cell-based, HIV-1. The note with it: Human immunodeficiency virus 1, MT4, read-out: IC50, concentration of metabolite inducing 50% inhibition of viral replication.
From the text: as §2

The test system of the next data set is HIV-1111B TIBO^r. Put plainly: XTT dye uptake assay utilising MT4 cells. The data set is classed as cell-based, HIV-1. As to conditions: Human immunodeficiency virus 1, MT4, read-out: IC50, concentration of metabolite inducing 50% inhibition of viral replication.
From the text: as §2

The conditions of data set [8]: rat, in vivo, po.
Method: At 30, 60, 120, 240 & 360 minutes, 0.2 ml blood were collected, centrifuged and frozen for later analysis. […] Aliquots comprising 40–100 μl of each plasma sample are mixed with an equal volume of acetonitrile (10 seconds, Vibrofex). The sample is centrifuged (2 min, 14000 RPM) and 30 μl of the supernatant is injected into an HPLC system, as follows.

Like-named read-outs stand apart in the source and are kept apart here.

As a reminder, the bioavailability is dose-corrected exposure relative to a reference, in per cent.

On to `CC(C)[C@H](N)C(=O)OCC(COC(=O)[C@@H](N)C(C)C)OC(=O)CCC(=O)OC[C@H]1O[C@@H](n2cnc3c(=O)[nH]c(N)nc32)C[C@@H]1F` [Example 29, 2′, 3′-Dideoxy-3′-fluoro-5′-O-3-[1,3-bis-(L-valyloxy]-2-propyloxycarbonylpropanoyl]guanosine], for which the “6 h absolute bioavail. %” value in data set [1] is recorded as 51%.

Take `CCCCCCCCCCCCCCCCCC(=O)OCC(COC(=O)[C@@H](N)C(C)C)CC(=O)OC[C@H]1O[C@@H](n2cnc3c(=O)[nH]c(N)nc32)C[C@@H]1F` (some centres unmarked) [Example 13]: the “6 h absolute bioavail. %” value in [1] is listed as 37%.

Consider `CC(C)[C@H](N)C(=O)OCC(COC(=O)[C@@H](N)C(C)C)CC(=O)OC[C@H]1O[C@@H](n2cnc3c(=O)[nH]c(N)nc32)C[C@@H]1F` [Example 26, 2′, 3′-Dideoxy-3′-fluoro-5′-O-[3,3-bis(L-valyloxymethyl)-propionic acid] guanosine], for which the “12 h absolute bioavail. %” value in [1] was determined as 67.5%.

Turning to `CC(C)C(N)C(=O)OC1Cc2ccccc2C1NC(=O)[C@H](OCc1ccccc1)C(O)C(O)[C@@H](OCc1ccccc1)C(=O)N[C@H]1c2ccccc2CC1OC(=O)C(N)C(C)C` (some centres unmarked), the bioavailability entry in [2] (rats, same assay, comparator dosed itself) is recorded as “below the level of detection”.

In the case of `O=C(N[C@H]1c2ccccc2C[C@H]1O)[C@H](OCc1ccccc1)C(O)[C@@H](O)[C@@H](OCc1ccccc1)C(=O)N[C@H]1c2ccccc2C[C@H]1O` (stereo partly drawn) [mother compound, N1, N6-di [(1S,2R)-2-hydroxy-2,3-dihydro-1-H-1-indenyl]-(2R, 3R, 5R)-2,5-di(benzyloxy)-3,4-dihydroxyhexanediamide], the bioavailability result in data set [2] (rat, in vivo) is “below level of detection”.

With `Nc1nc2c(ncn2[C@H]2C[C@H](F)[C@@H](CO)O2)c(=O)[nH]1` [FLG, 2′,3′-dideoxy, 3′-fluoroguanosine], the protein binding entry in data set [3] is on record as “neglible”. Further, the “inhibition of DHBV in vivo” value in data set [4] (0.3 mg/kg/day) is “considerable inhibition of DHBV in vivo”. Further, the “amount of DHBV DNA in serum during treatment” value in data set [4] (5 mg/kg/day intraperitoneally, twice daily injections) is “dramatic decrease in the amount of DHBV in serum during the first 10 days of treatment, whereupon for the remainder of treatment the level of DHBV DNA was below the detection limit”. Further, the “DHBV in serum after the finish of treatment” value in data set [4] (after the finish of treatment, followed 5 weeks) is “virus reappeared in the serum”. In addition, in data set [4] (repeat experiments at 30 and 3 mg/kg/day and with congenitally infected ducks), the “serum DHBV DNA during treatment” value is “dramatic fall in serum DHBV DNA to under the detection threshold”. This compound came in with a bioavailability in data set [5] of roughly 4%. The IC50 in the data set on SIVSM was 1 µg/mL; with HIV-1^2441 AZT^r, 1 µg/mL; in the data set with HIV-2SBL6669 it was 2 µg/mL; in the data set on HIV-1^29/9, 0.7 µg/mL; in the data set with HIV-1111B, 1 µg/mL; in the data set with HIV-1111B TIBO^r it was 1 µg/mL. The “weight of the ducks during treatment” value in [6] (5 mg/kg/day, compared with PBS treated controls) is reported as “increased in the same way as in the control”. In addition, the “toxicity judged from growth rate” value in [6] (ducks, treatment period) is given as “clearly non-toxic”. In addition, in [7], the “12 h absolute bioavail. %” value was 9%**.

Regarding `CCCCCCCCCCCCCCCCCC(=O)OCC(CCCC(=O)OC[C@H]1O[C@@H](n2cnc3c(=O)[nH]c(N)nc32)C[C@@H]1F)COC(=O)[C@@H](N)C(C)C` (stereo partly drawn) [Example 12, 2′ 3′-dideoxy-3′-fluoro-5′-O-[5-(L-valyloxymethyl)-6-stearoyloxyhexanoyl]guanosine], the “6 h absolute bioavail. %” value in [1] amounted to 29%.

Take `CCC(=O)c1ccc(F)c([C@@H]2C[C@@H]2NC(=O)Nc2ccc(C#N)cn2)c1OCOC(=O)[C@@H](N)[C@@H](C)CC` (relative stereo) [Example P-1, (1S. 2S)-N-{cis-2-[6-fluoro-2-(L-isoleucyloxymethyloxy)-3-propionylphenyl]cyclopropyl}-N′-[2-(5-cyanopyridyl)]urea]: the “Bioavailability0–6 hours” value in [8] came to 34%.

For `CCCCCCCCCCCCCCCCCC(=O)OC(COC(=O)[C@@H](N)C(C)C)C(=O)OC[C@H]1O[C@@H](n2cnc3c(=O)[nH]c(N)nc32)C[C@@H]1F` (some centres unmarked) [Example 25], the “6 h absolute bioavail. %” value in data set [1] is listed as 81.5%.

The values above are taken from patent publication US7071173B2, “Antiviral methods employing double esters of 2′, 3′-dideoxy-3′-fluoroguanosine” (Medivir AB, priority 1998, dated 2006).
